Reference: patent US11021598B2, “Resin molded product, laminate, and decorative sheet” (TOPPAN PRINTING CO., LTD., priority 2017, dated 2021)

Legend:
[1] = pKa of photostabilizer (half neutralization potential titration); format: physicochemical; settings: non-aqueous titration, HNP calibration curve
Method: (Method of Measuring pKa of Photostabilizer)
A solution of 0.1 N perchloric acid/dioxane and acetonitrile:chloroform=1:1 was added dropwise to an organic reference substance having known pKa value in an aqueous system to determine the half neutralization potential (HNP) by titration in a non-aqueous system. A plot of the HNP calibration curve for pKa was prepared. Then, titration was performed for the photostabilizer in the same manner to determine a corresponding pKa from the plot of calibration curve.

[2] = pKa of ultraviolet absorber upon light absorption; format: physicochemical; settings: when irradiated with light, absorption spectrum; for pKa: acetonitrile solution titrated with 70% perchloric acid
Method: (Method of Measuring pKa of Ultraviolet Absorber Upon Light Absorption)
The ultraviolet absorber was dissolved in acetonitrile so that the absorbance at the maximum absorption wavelength became 1, and bubbling with nitrogen was performed for 15 minutes. Then, 70% perchloric acid was dropped into the solution to change the pH of the solution. At that time, the absorption spectrum of the solution was measured, and, from the absorbance at λmax, the ultraviolet absorber at each pH and the ultraviolet absorber in which hydrogen ion is added to the nitrogen of the benzotriazole skeleton or triazine skeleton of the ultraviolet absorber were obtained. From the point where these values become equal, pKa of the ultraviolet absorber upon light absorption was determined. Measurement of the absorption spectrum was performed by using a U-4000 spectrophotometer manufactured by Hitachi High-Technologies Corporation.

Structure (SMILES)	Photostabilizer pKa [1]	further results
CCCCCCCCCCCCCCN1C(=O)NC2(CC(C)(C)N(C(C)=O)C(C)(C)C2)C1=O [8-acetyl-3-tetradecyl-7,7,9,9-tetramethyl-1,3,8-triazaspiro[4.5]decane-2,4-dione]	–	pKa [1]: 3.5
CCCCCCCCOc1ccc(-c2nc(-c3ccc(C)cc3C)nc(-c3ccc(C)cc3C)n2)c(O)c1 [CYASORB UV-1164, 2,4-bis(2,4-dimethylphenyl)-6-(2-hydroxy-4-n-octyloxyphenyl)-1,3,5-triazine]	–	pKa [2]: -5
CC(C)(C)CC(C)(C)c1ccc(O)c(-n2nc3ccccc3n2)c1 [Tinuvin 329]	–	Ultraviolet absorber pKa ([2]; acetonitrile, 70% perchloric acid): −4.9
CC1(C)CC(OC(=O)CCCCCCCCC(=O)OC2CC(C)(C)NC(C)(C)C2)CC(C)(C)N1 [Chimassorb 770]	9.0	–
CCCCC(Cc1cc(C(C)(C)C)c(O)c(C(C)(C)C)c1)(C(=O)OC1CC(C)(C)N(C)C(C)(C)C1)C(=O)OC1CC(C)(C)N(C)C(C)(C)C1 [Tinuvin PA144]	9.5	–
CCCCCCCCCCCON1C(C)(C)CC(OC(=O)OC2CC(C)(C)N(OCCCCCCCCCCC)C(C)(C)C2)CC1(C)C [LA-81]	5.5	–
CCCCCCCCON1C(C)(C)CC(OC(=O)CCCCCCCCC(=O)OC2CC(C)(C)N(OCCCCCCCC)C(C)(C)C2)CC1(C)C [Tinuvin 123]	4.7	Photostabilizer pKa ([1]; listed as Tinuvin123): 4.5
Cc1cc(-n2nc3ccc(Cl)cc3n2)c(O)c(C(C)(C)C)c1 [Tinuvin 326, 2-(5-chloro-2-benzotriazolyl)-6-tert-butyl-p-cresol]	–	pKa [2]: -4.9
CCCCN(c1nc(NCCO)nc(N(CCCC)C2CC(C)(C)N(OC3CCCCC3)C(C)(C)C2)n1)C1CC(C)(C)N(OC2CCCCC2)C(C)(C)C1 [Tinuvin 152]	7.0	–
